Results published in US4711879A, “Acylated sugar derivatives, processes for their manufacture, and their use” (Ciba-Geigy Corporation, priority 1984, dated 1987).

How the values were obtained:
[1] = test for pyrogenity in rabbits (European Pharmacopoeia); type: in vivo; details: 5 mg/kg i.v.
Method: The test for pyrogenity can be carried out in rabbits in accordance with the instructions given in the European Pharmacopoeia, Volume 2, pages 56 to 59 (1971). According to this test, for example N-propionyl- desmethylmuramyl-L-alanyl-D-isoglutaminyl-L-alanine-3-{2-[2-(2,6-dichlorophenylamino)-phenyl]-acetylamino}-2-hydroxypropylamide is not pyrogenic at a dose of 5 mg/kg i.v.

viruses = assay: prophylaxis and treatment of virus infections in animals; type: in vivo, mice or guinea pigs; details: tests on animals
Text: In these animal tests, animals, such as mice or guinea pigs, are infected with the most varied types of viruses at a dose that is lethal to all or the great majority of the untreated (control) animals, for example LD80-90, and the course of the infection is observed in the untreated control animals in comparison with animals treated with one of the above-mentioned compounds or a salt thereof before, simultaneously with or after infection.
These compounds of the formula I are effective in as low a dosage range as from 0.0001 mg/kg to 0.1 mg/kg in the above-mentioned test in mice.

Row | pyrogenity [1] | Compound | suitability for prophylaxis and treatment of virus infections (viruses)
1 | not pyrogenic | CCC(=O)N(C1O[C@H](CO)[C@@H](O)[C@H](OCC(=O)O)[C@H]1N)[C@@H](C)C(=O)N[C@H](CCC(=O)N[C@@H](C)C(=O)NCC(O)CNC(=O)Cc1ccccc1Nc1c(Cl)cccc1Cl)C(N)=O (stereo partly drawn) [Example 6, N-propionyldesmethylmuramyl-L-alanyl-D-isoglutaminyl-L-alanine-3-{2-[2-(2,6-dichlorophenylamino)-phenyl]acetylamino}-2-hydroxypropylamide] | –
2 | – | (1α,β),4,6-tri-O-acetyl-N-propionyldesmethylmuramyl-L-alanyl-D- isoglutaminyl-L-alanine-3-[d-2-(6-methoxy-2-naphthyl]-propionylamino]-2-acetoxypropylamide [Example 21] | outstandingly suitable for the prophylaxis and treatment of virus infections
